How the values were obtained:
[1] = Gas-phase evaluation of each fragrance ingredient alone against model scalp malodour, MiniVAS device, panel of 5 experts; conditions: for Scalp MOC of ingredient alone: expert description
Experimental: In a first set of experiments, the scalp malodour counteractancy of 173 fragrance ingredients was evaluated by panel of 5 experts.
The evaluation was performed in the gas phase, using a MiniVAS™ device (ex Givaudan SA). This device is a regulating means that comprises a plurality of channels adapted to convey a gas (more particularly air) through cartridges, each cartridge containing a fragrance ingredient adsorbed onto an adsorbent. The air flows coming from the different cartridges are admixed and conveyed to the user's nose through a tubing fitted with an olfactometer funnel. Thus, by opening and closing channels and maintaining these opened and closed, respectively, for predetermined times, the regulating means can determine which fragrance ingredients and how much thereof are conveyed and when, and thus alter the nature of the fragrance perceived by the user. A description of the device can be found in WO2014154909A1, page 2, line 11 to page 4, line 7, and in H. R. Gygax et al. “Evolution of Real Time Aroma Creation at Givaudan”, poster presented at the 12th Weurman Flavour Research Symposium. July 2008. Interlaken, Switzerland; DOI: 10.13140/2.1.1924.0641.
For the sake of the present evaluation, one cartridge contained the scalp malodour (in the form of a model malodour) and each fragrance ingredient was assigned to another cartridge. The malodour counteractancy of each fragrance ingredient was evaluated separately against the scalp malodour. A constant air flow rate of 50 ml/min was used for all measurements. The perceived malodour intensity, as well as the fragrance intensity, were ranked on a scale of 1-5 (1=barely noticeable, 2=weak, 3=medium, 4=strong and 5=very strong).

[2] = Impact of fragrance ingredients on scalp malodour counteractancy of 80 fragrance compositions (Example 2 protocol, statistical presence); conditions: series of 80 fragrance compositions
Experimental: In a second set of experiments, the impact of these fragrance ingredients on the scalp malodour counteractancy of a fragrance composition was assessed. The scalp malodour counteractancy of a series of 80 fragrance compositions was assessed by performing the evaluation protocol described in Example 2. […] Ingredients that were statistically more present in fragrances having a high malodour counteractancy were assigned a positive status, whereas ingredients that were statistically more present in compositions having a low malodour counteractancy were assigned a negative status.

[3] = Table 3, air flow 50 ml/min, scale of 1-5 (1=barely noticeable, 5=very strong)
[4] = Table 4, air flow 50 ml/min, scale of 1-5

SMILES: CC(=O)C1(C)CC2=C(CCCC2(C)C)CC1C (stereo not shown) [1-(2,3,8,8-tetramethyl-1,2,3,4,5,6,7,8-octahydronaphthalen-2-yl)ethanone]
- MO intensity [1, 3]: 1
- Scalp MOC of ingredient alone ([1]; Table 3, gas phase): No effect
- Impact on scalp MOC of fragrance composition ([2]; Table 3): Positive

SMILES: CC(=O)c1ccc2ccccc2c1 [1-(2-naphtalenyl)-ethanone]
- MO intensity [1, 4]: 1
- Impact on scalp MOC of fragrance composition ([2]; Table 4): Negative

SMILES: CC(=O)c1cc2c(cc1C)C(C)(C)C(C)CC2(C)C (stereo not shown) [1-(3,5,5,6,8,8-hexamethyl-5,6,7,8-tetrahydronaphthalen-2-yl)ethanone]
- MO intensity [1, 3]: 3
- Impact on scalp MOC of fragrance composition ([2]; Table 3): Positive

SMILES: CC(=O)C1=C(C)C2C[C@@]3(C1)C(CC[C@@H]3C)C2(C)C (stereo partly drawn) [1-((1S,8aS)-1,4,4,6-tetramethyl-2,3,3a,4,5,8-hexahydro-1H-5,8a-methanoazulen-7-yl)ethanone]
- MO intensity [1, 4]: 1
- Impact on scalp MOC of fragrance composition ([2]; Table 4): Negative

SMILES: CCC(O)COC1CCCCC1C(C)(C)C (stereo not shown) [1-((2-(tert-butyl)cyclohexyl)oxy)butan-2-ol]
- MO intensity [1, 3]: 2.3
- Scalp MOC of ingredient alone ([1]; Table 3, gas phase): Coverage
- Impact on scalp MOC of fragrance composition ([2]; Table 3): Positive

SMILES: CC(=O)C1CC/C=C\C(C)C(C)/C=C\C/C=C/1C (stereo not shown) [1-((2E,5Z,9Z)-2,7,8-trimethylcyclododeca-2,5,9-trien-1-yl)ethanone]
- MO intensity [1, 3]: 1
- Scalp MOC of ingredient alone ([1]; Table 3, gas phase): No effect
- Impact on scalp MOC of fragrance composition ([2]; Table 3): Positive

SMILES: CCCCOC(=O)C(C)OC(=O)CCC (stereo not shown) [1-butoxy-1-oxopropan-2-yl butanoate]
- MO intensity [1, 3]: 1
- Scalp MOC of ingredient alone ([1]; Table 3, gas phase): No effect
- Impact on scalp MOC of fragrance composition ([2]; Table 3): Positive

SMILES: CC(C)=CCC(C)C1CC1(C)CO (stereo not shown) [1-methyl-2-(5-methylhex-4-en-2-yl)cyclopropylmethanol]
- MO intensity [1, 3]: 2.7
- Impact on scalp MOC of fragrance composition ([2]; Table 3): Positive

SMILES: CC1(CO)CC1CC1CC2CC2(C)C1(C)C (stereo not shown) [1-methyl-2-((1,2,2-trimethylbicyclo[3.1.0]hexan-3-yl)methyl)cyclopropyl)methanol]
- MO intensity [1, 3]: 3.3
- Impact on scalp MOC of fragrance composition ([2]; Table 3): Positive

SMILES: CC(=O)c1ccccc1 [1-phenylethanone]
- MO intensity [1, 3]: 5
- Impact on scalp MOC of fragrance composition ([2]; Table 3): Positive

SMILES: c1ccc2[nH]ccc2c1 [1H-indole]
- MO intensity [1, 3]: 4
- Impact on scalp MOC of fragrance composition ([2]; Table 3): Positive

SMILES: CCCCCC1(C)CCC(C)(C)C1=O (stereo not shown) [2,2,5-trimethyl-5-pentylcyclopentanone]
- MO intensity [1, 3]: 3.5
- Impact on scalp MOC of fragrance composition ([2]; Table 3): Positive

SMILES: CC1CC(C)(c2ccccc2)OC(C)O1 (stereo not shown) [2,4,6-trimethyl-4-phenyl-1,3-dioxane]
- MO intensity [1, 4]: 1
- Impact on scalp MOC of fragrance composition ([2]; Table 4): Negative

SMILES: CC1CC(C)(c2ccccc2)CO1 (stereo not shown) [2,4-dimethyl-4-phenyltetrahydrofuran]
- MO intensity [1, 4]: 4.1
- Impact on scalp MOC of fragrance composition ([2]; Table 4): Negative

SMILES: CC1=CC(C)C(C=O)CC1 (stereo not shown) [2,4-dimethylcyclohex-3-ene-1-carbaldehyde]
- MO intensity [1, 4]: 1
- Impact on scalp MOC of fragrance composition ([2]; Table 4): Negative

SMILES: CC1=CC(C)C(C=O)CC1 (stereo not shown) [2,4-dimethylcyclohex-3-enecarbaldehyde]
- MO intensity [1, 4]: 3.8
- Scalp MOC of ingredient alone ([1]; Table 4, gas phase): Good coverage

SMILES: Cc1ncsc1CCO [2-(4-Methyl-1,3-thiazol-5-yl)ethanoL]
- MO intensity [1, 3]: 1
- Scalp MOC of ingredient alone ([1]; Table 3, gas phase): No effect
- Impact on scalp MOC of fragrance composition ([2]; Table 3): Positive

SMILES: CC(=O)OCCC1=CCC2CC1C2(C)C (stereo not shown) [2-(6,6-dimethylbicyclo[3.1.1]hept-2-en-2-yl)ethyl acetate]
- MO intensity [1, 3]: 2
- Impact on scalp MOC of fragrance composition ([2]; Table 3): Positive

SMILES: CC(C)C(=O)OCCOc1ccccc1 [2-(phenoxy)ethyl 2-methylpropanoate]
- MO intensity [1, 4]: 2.3
- Impact on scalp MOC of fragrance composition ([2]; Table 4): Negative

SMILES: CC(=O)OC1CCCCC1C(C)(C)C (stereo not shown) [2-(tert-butyl)cyclohexyl acetate]
- MO intensity [1, 3]: 2
- Impact on scalp MOC of fragrance composition ([2]; Table 3): Positive

SMILES: N#CC(=C1CCCCC1)c1ccccc1 [2-cyclohexylidene-2-phenylacetonitrile]
- MO intensity [1, 4]: 1
- Impact on scalp MOC of fragrance composition ([2]; Table 4): Negative

SMILES: CCOc1cc(C)ccc1O [2-ethoxy-4-methylphenol]
- MO intensity [1, 3]: 2.8
- Impact on scalp MOC of fragrance composition ([2]; Table 3): Positive

SMILES: CCC1OC(C)=C(O)C1=O (stereo not shown) [2-ethyl-4-hydroxy-5-methylfuran-3(2H)-one]
- MO intensity [1, 4]: 4.5
- Impact on scalp MOC of fragrance composition ([2]; Table 4): Negative

SMILES: CC1CCC(C(C)C)C(O)C1 (stereo not shown) [2-isopropyl-5-methylcyclohexanol]
- MO intensity [1, 3]: 1.2
- Impact on scalp MOC of fragrance composition ([2]; Table 3): Positive

SMILES: CCCc1ccc(O)c(OC)c1 [2-methoxy-4-propylphenol]
- MO intensity [1, 3]: 2
- Impact on scalp MOC of fragrance composition ([2]; Table 3): Positive

SMILES: CC(C)(O)Cc1ccccc1 [2-methyl-1-phenylpropan-2-ol]
- MO intensity [1, 4]: 1
- Impact on scalp MOC of fragrance composition ([2]; Table 4): Negative

SMILES: CCCC(=O)OC(C)(C)Cc1ccccc1 [2-methyl-1-phenylpropan-2-yl butanoate]
- MO intensity [1, 4]: 3
- Impact on scalp MOC of fragrance composition ([2]; Table 4): Negative

SMILES: CCCC1CCOC(C)S1 (stereo not shown) [2-methyl-4-propyl-1,3-oxathiane]
- MO intensity [1, 4]: 1
- Impact on scalp MOC of fragrance composition ([2]; Table 4): Negative

SMILES: CCCCCCCCCC(C)C=O (stereo not shown) [2-methylundecanal]
- MO intensity [1, 3]: 3.5
- Impact on scalp MOC of fragrance composition ([2]; Table 3): Positive

SMILES: OCCc1ccccc1 [2-phenylethanol]
- MO intensity [1, 4]: 3.2
- Impact on scalp MOC of fragrance composition ([2]; Table 4): Negative

SMILES: CC(=O)OCCc1ccccc1 [2-phenylethyl acetate]
- MO intensity [1, 4]: 1
- Impact on scalp MOC of fragrance composition ([2]; Table 4): Negative

SMILES: CC(C)=CCCC(C)CCO (stereo not shown) [3,7-dimethyloct-6-en-1-ol]
- MO intensity [1, 3]: 2.5
- Impact on scalp MOC of fragrance composition ([2]; Table 3): Positive

SMILES: CC(=O)OCCC(C)CCC=C(C)C (stereo not shown) [3,7-dimethyloct-6-en-1-yl acetate]
- MO intensity [1, 4]: 2
- Scalp MOC of ingredient alone ([1]; Table 4, gas phase): Low coverage
- Impact on scalp MOC of fragrance composition ([2]; Table 4): Negative

SMILES: CC(C)=CCCC(C)CC=O (stereo not shown) [3,7-dimethyloct-6-enal]
- MO intensity [1, 3]: 3
- Impact on scalp MOC of fragrance composition ([2]; Table 3): Positive

SMILES: CC(C)CCCC(C)CCO (stereo not shown) [3,7-dimethyloctan-1-ol]
- MO intensity [1, 3]: 4.3
- Impact on scalp MOC of fragrance composition ([2]; Table 3): Positive

SMILES: CCC(C)(O)CCCC(C)C (stereo not shown) [3,7-dimethyloctan-3-ol]
- MO intensity [1, 4]: 3
- Impact on scalp MOC of fragrance composition ([2]; Table 4): Negative

SMILES: CC(CCO)CCCC(C)(C)O (stereo not shown) [3,7-dimethyloctane-1,7-diol]
- MO intensity [1, 3]: 1
- Scalp MOC of ingredient alone ([1]; Table 3, gas phase): No effect
- Impact on scalp MOC of fragrance composition ([2]; Table 3): Positive

SMILES: Cc1cc(CC(C)C)ccc1CCC=O [3-(4-(2-methylpropyl)-2-methylphenyl)propanal]
- MO intensity [1, 3]: 2.8
- Impact on scalp MOC of fragrance composition ([2]; Table 3): Positive

SMILES: CC(C=O)Cc1ccc(C(C)(C)C)cc1 (stereo not shown) [3-(4-(tert-butyl)phenyl)-2-methylpropanal]
- MO intensity [1, 3]: 2.8
- Impact on scalp MOC of fragrance composition ([2]; Table 3): Positive

SMILES: COc1ccc(CC(C)C=O)cc1 (stereo not shown) [3-(4-methoxyphenyl)-2-methylpropanal]
- MO intensity [1, 3]: 1
- Scalp MOC of ingredient alone ([1]; Table 3, gas phase): No effect
- Impact on scalp MOC of fragrance composition ([2]; Table 3): Positive

SMILES: CCCCC1COCC(C)C1OC(C)=O (stereo not shown) [3-butyl-5-methyltetrahydro-2H-pyran-4-yl acetate]
- MO intensity [1, 4]: 1
- Impact on scalp MOC of fragrance composition ([2]; Table 4): Negative

SMILES: Cc1occc(=O)c1O [3-hydroxy-2-methyl-4H-pyran-4-one]
- MO intensity [1, 3]: 4
- Impact on scalp MOC of fragrance composition ([2]; Table 3): Positive

SMILES: CC(=O)C(C)O (stereo not shown) [3-hydroxybutan-2-one]
- MO intensity [1, 3]: 4
- Impact on scalp MOC of fragrance composition ([2]; Table 3): Positive

SMILES: CC(CCO)CCc1ccccc1 (stereo not shown) [3-methyl-5-phenylpentan-1-ol]
- MO intensity [1, 3]: 2
- Impact on scalp MOC of fragrance composition ([2]; Table 3): Positive

SMILES: CC1COCc2cc3c(cc21)C(C)(C)C(C)C3(C)C (stereo not shown) [4,6,6,7,8,8-hexamethyl-1,3,4,6,7,8-hexahydrocyclopenta[g]isochromene]
- MO intensity [1, 3]: 3
- Impact on scalp MOC of fragrance composition ([2]; Table 3): Positive

SMILES: CCC(=O)C(C)CC=C(C)C (stereo not shown) [4,7-dimethyloct-6-en-3-one]
- MO intensity [1, 4]: 4
- Impact on scalp MOC of fragrance composition ([2]; Table 4): Negative

SMILES: CC(=O)CCC1=C(C)CCCC1(C)C [4-(2,6,6-trimethylcyclohex-1-en-1-yl)butan-2-one]
- MO intensity [1, 4]: 1
- Impact on scalp MOC of fragrance composition ([2]; Table 4): Negative

SMILES: CC(C)=CCCC1=CCC(C=O)CC1 (stereo not shown) [4-(4-methylpent-3-en-1-yl)cyclohex-3-enecarbaldehyde]
- MO intensity [1, 4]: 1
- Impact on scalp MOC of fragrance composition ([2]; Table 4): Negative

SMILES: C=CCc1ccc(O)c(OC)c1 [4-allyl-2-methoxyphenol]
- MO intensity [1, 3]: 4
- Impact on scalp MOC of fragrance composition ([2]; Table 3): Positive

— patent US20260272797A1, “FRAGRANCE COMPOSITION” (GIVAUDAN SA, priority 2023, published 2026)
